# Measured values: article PMC5320485, “4-isopropylcyclohexanol has potential analgesic effects through the inhibition of anoctamin 1, TRPV1 and TRPA1 channel activities” (Scientific Reports, 2017)
# pIC50: −log10 of the molar value.
# Columns and labels:
# Format in all cases: cell-based
# [1] = target: T1, mouse anoctamin 1 (mANO1) (Mus musculus, UniProt Q8BHY3); assay: whole-cell patch clamp in HEK293T cells, dose-response at −[…] mV
# T1 construct: gene Ano1
# T1 sequence (Q8BHY3 1-960): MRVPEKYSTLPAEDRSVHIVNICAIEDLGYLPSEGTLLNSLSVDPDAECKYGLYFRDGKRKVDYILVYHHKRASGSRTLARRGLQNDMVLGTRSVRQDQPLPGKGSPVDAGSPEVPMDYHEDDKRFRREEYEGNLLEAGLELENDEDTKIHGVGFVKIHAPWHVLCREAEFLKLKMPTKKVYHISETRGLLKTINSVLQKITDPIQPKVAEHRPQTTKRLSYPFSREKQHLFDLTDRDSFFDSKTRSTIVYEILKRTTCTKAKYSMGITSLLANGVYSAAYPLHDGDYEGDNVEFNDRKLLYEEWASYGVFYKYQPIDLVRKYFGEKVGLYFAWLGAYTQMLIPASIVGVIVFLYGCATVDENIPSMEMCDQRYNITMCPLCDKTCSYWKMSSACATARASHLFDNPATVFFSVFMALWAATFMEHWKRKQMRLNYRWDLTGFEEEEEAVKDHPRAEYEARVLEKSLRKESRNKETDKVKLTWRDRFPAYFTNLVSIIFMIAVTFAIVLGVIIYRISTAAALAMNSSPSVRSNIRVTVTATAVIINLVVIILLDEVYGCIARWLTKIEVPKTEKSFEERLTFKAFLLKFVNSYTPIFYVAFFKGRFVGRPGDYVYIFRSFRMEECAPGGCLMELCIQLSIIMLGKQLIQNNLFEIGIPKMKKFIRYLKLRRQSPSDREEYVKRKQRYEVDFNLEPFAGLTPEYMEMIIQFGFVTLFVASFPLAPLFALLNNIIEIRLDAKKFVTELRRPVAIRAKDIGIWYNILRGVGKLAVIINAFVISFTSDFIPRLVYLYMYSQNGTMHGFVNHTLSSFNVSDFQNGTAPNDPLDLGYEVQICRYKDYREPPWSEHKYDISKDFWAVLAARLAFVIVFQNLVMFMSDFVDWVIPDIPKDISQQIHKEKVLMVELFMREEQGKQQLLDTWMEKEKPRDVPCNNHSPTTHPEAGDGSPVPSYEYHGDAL
# human TRPA1 (hTRPA1) = human TRPA1 (hTRPA1) (Homo sapiens, UniProt O75762); assay: whole-cell patch clamp in HEK293T cells; inhibits AITC currents at […] and weakly activates alone
# [2] = target: T1, mouse anoctamin 1 (mANO1); assay: whole-cell patch clamp in HEK293T cells at […]
# Chain of human TRPA1 (hTRPA1) (O75762 whole entry): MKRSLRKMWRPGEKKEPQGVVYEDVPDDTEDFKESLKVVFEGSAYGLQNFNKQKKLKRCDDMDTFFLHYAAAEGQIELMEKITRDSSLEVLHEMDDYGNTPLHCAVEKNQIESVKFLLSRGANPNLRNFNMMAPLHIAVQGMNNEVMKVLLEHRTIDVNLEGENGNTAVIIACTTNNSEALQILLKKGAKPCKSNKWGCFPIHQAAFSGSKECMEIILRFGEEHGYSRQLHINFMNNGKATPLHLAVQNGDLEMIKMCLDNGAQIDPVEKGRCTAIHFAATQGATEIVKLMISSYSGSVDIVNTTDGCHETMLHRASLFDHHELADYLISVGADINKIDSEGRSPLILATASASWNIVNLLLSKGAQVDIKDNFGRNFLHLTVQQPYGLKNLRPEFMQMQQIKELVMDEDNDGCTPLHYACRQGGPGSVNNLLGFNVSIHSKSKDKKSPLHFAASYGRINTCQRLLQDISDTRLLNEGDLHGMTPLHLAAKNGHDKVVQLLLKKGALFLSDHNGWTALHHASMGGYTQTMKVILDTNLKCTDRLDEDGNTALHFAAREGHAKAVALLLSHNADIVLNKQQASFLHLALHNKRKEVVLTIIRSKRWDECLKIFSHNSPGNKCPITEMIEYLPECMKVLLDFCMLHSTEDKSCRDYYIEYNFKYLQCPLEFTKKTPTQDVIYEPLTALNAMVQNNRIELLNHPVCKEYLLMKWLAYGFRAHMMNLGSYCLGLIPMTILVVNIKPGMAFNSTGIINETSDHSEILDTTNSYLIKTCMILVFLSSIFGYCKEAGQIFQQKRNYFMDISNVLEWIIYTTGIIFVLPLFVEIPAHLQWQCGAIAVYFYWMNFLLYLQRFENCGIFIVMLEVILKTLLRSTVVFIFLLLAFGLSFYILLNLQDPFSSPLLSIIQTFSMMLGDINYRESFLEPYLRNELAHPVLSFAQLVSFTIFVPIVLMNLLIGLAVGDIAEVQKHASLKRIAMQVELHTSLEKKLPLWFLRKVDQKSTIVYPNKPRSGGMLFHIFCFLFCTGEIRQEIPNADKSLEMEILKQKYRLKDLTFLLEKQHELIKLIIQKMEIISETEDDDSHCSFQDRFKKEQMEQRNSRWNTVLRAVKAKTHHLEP
SMILES,pIC50 [1],whole-cell patch clamp in HEK293T cells; inhibits AITC currents at 3 mM and weak (human TRPA1 (hTRPA1)),whole-cell patch clamp in HEK293T cells at 3 mM [2]
"CC(C)C1CCC(O)CC1 (stereo not shown) [4-iPr-CyH-OH, 4-isopropylcyclohexanol]",2.96,"4-iPr-CyH-OH did not activate hTRPV1 (Fig. 5d), yet did slightly but significantly activate hTRPA1",
"CC(C)C1CCCCC1 [iPr-CyH, isopropylcyclohexane]",,,isopropylcyclohexane (iPr-CyH) strongly inhibited mANO1 currents to a similar degree as that seen for d-menthol
CC(C)[C@@H]1CC[C@@H](C)C[C@H]1O [l-menthol],3.36,,
